From patent US11026426B2, “Oxadiazole and phenol derivatives as antibacterial and/or herbicidal agents” (NORTHERN ILLINOIS RESEARCH FOUNDATION, priority 2017, dated 2021) come the findings set out here.

The structures appear in SMILES notation. Where two headings read alike, the source gives them in different places.

The term IC50 denotes the concentration at which inhibition is half-maximal.

Assay [1] relates to Micrococcus luteus. In words: Antibacterial preliminary screening ML. Further: key: 0 represents no inhibition; 3 is comparable to commercial antibiotic control. The assay is classed as cell-based. Conditions: score 0-3.
For another assay, the target named is AtIspD (Arabidopsis thaliana, UniProt P69834). In words: University of Hamburg photometric enzymatic inhibition assay AtIspD. Conditions: read-out: AtIspD IC50. The class given is biochemical. The method, then: (§1) Compounds were subjected to a photometric enzymatic assay to test for inhibition of the plant enzymes Arabidopsis thaliana IspD and IspF, and IspE from Lycopersicon esculentum.
The procedure for AtIspD enzymatic inhibition assay, was performed by making an assay mixture of 100 mM Tris hydrochloride at pH 8.0 with 10 mM MgCl2, 1 mM dithiothreitol, 2.5 mM potassium phosphoenol pyruvate, 2.1 mM CTP, 2 mM ATP, 1 mM of (2R,3S)-2,3-dihydroxy-4-oxopentyl phosphate, 460 μM NADH, 1.1% (v/v) DMSO, 0.4 U IspE, 1 U lactate dehydrogenase, 1 U pyruvate kinase and 2.4 mU IspD in 180 μL of solution. Solutions were incubated at 27° C. and monitored photometrically. By preparing the assay mixture with a large excess of IspE compared to IspD, any inhibition of IspE by the test inhibitor would be insignificant compared to IspD and therefore the rate of the reaction is determined by IspD activity.

Another assay deals with lettuce seeds. The assay can be described thus: Lettuce leaf assay. The assay is classed as in vivo. Further details: key: 0 (no effect); 5(complete inhibition or bleaching). Conditions: ranking 0-5. The text has this: The lettuce leaf assay is a qualitative assay used to determine the relative effectiveness of the test compounds at inhibition of germination of seeds and root development as well as causing bleaching of leaves. Isoprenoid synthesis is vital in plants as isoprene-product gibberellins are a class of growth hormones in plants responsible for stimulating cell elongation and division. In addition, some carotenoids are involved in photosynthesis as components of the electron transport chain. MEP pathway inhibitors have the potential to prevent synthesis of these necessary cellular components and growth hormones resulting in inhibition of germination and root development as well as causing chlorosis, or bleaching in the leaves. The lettuce leaf assay, explores the effects of compounds as potential MEP pathway inhibitors by evaluating the effect on bleaching, root development, and germination of lettuce seeds, which all rely on isoprenoid biosynthesis. […] The assay is a qualitative assay and the effects are given rankings from 0 (no effect) to 5 (complete inhibition or bleaching). In this assay, compounds are dissolved in a volatile organic solvent and applied to filter paper in a petri dish. The solvent is allowed to evaporate and lettuce seeds are applied followed by the addition of 5 mL of water to obtain the necessary concentrations. Seeds are allowed to grow and they are observed on day 3 and day 4 for evaluation.

Assay [2] deals with Escherichia coli. In words: Antibacterial preliminary screening EC. Further: key: 0 represents no inhibition; 3 is comparable to commercial antibiotic control. The assay is classed as cell-based. The note with it: score 0-3.
Another assay concerns the target AtIspF (Arabidopsis thaliana, UniProt Q9CAK8). In words: University of Hamburg photometric enzymatic inhibition assay AtIspF. The class given is biochemical. The note with it: read-out: AtIspF IC50. The protocol: as §1
The IspF assay mixture conditions were as follows: 100 mM Tris hydrochloride at pH 8.0 with 10 mM MgCl2, 1 mM dithiothreitol, 2.5 mM potassium phosphoenol pyruvate, 2 mM ATP, 1 mM of 4-diphosphocytidyl-2C methylerythritol 2-phosphate, 460 μM NADH, 1.1% (v/v) DMSO, 0.5 U CMP kinase, 2.4 mU IspF, 1 U lactate dehydrogenase, 1 U pyruvate kinase in 180 μL of solution. Solutions were incubated at 27° C. and monitored photometrically.

For assay [3], the system named is Burkholderia thailandensis. The assay is classed as cell-based. Conditions: preliminary screening, score 0-3.
For assay [4], the target named is T1, Mycobacterium tuberculosis IspD (MtIspD) (Mycobacterium tuberculosis, UniProt P9WKG9).
T1 sequence (P9WKG9 1-231): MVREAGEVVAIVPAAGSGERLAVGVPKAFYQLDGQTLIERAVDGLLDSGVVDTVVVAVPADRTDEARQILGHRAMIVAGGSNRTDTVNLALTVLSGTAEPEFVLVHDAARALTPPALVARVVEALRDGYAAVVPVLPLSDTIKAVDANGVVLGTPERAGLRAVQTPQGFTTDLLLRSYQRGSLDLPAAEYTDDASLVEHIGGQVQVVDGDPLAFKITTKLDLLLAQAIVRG
In words: Thermal shift assay against MtIspD. The assay is classed as binding.

In assay [5] the test system is Corynebacterium xerosis. In words: Antibacterial preliminary screening CX. Further: key: 0 represents no inhibition; 3 is comparable to commercial antibiotic control. The class given is cell-based. The note with it: score 0-3.
For assay [6], the system named is Corynebacterium pseudodiphtheriae. In words: Antibacterial preliminary screening CP.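 Further: 0 is no inhibition and 3 matches the commercial antibiotic control.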 The note with it: score 0-3. The assay is classed as cell-based.
Assay [7] addresses Lycopersicon esculentum IspE (LeIspE) (Solanum lycopersicum, UniProt P93841). In words: Thermal shift assay against LeIspE. The class given is binding.
The subject of assay [8] is Mycobacterium smegmatis. The assay can be described thus: Antibacterial preliminary screening MS. Further: key: 0 represents no inhibition; 3 is comparable to commercial antibiotic control. The assay is classed as cell-based. Conditions: score 0-3.
The next assay addresses LeIspE (Solanum lycopersicum, UniProt P93841). The assay can be described thus: University of Hamburg photometric enzymatic inhibition assay LeIspE. The note with it: read-out: LeIspE IC50. The assay is classed as biochemical, Lycopersicon esculentum. The method, then: as §1
The IspE assay conditions were very similar to the IspD assay in which the assay mixture was composed of 100 mM Tris hydrochloride at pH 8.0 with 10 mM MgCl2, 1 mM dithiothreitol, 2.5 mM potassium phosphoenol pyruvate, 2 mM ATP, 1 mM of 4-Diphosphocytidyl-2-C-methylerythritol, 460 μM NADH, 1.1% (v/v) DMSO, 2.4 mU IspE, 1 U lactate dehydrogenase, 1 U pyruvate kinase in 180 μL of solution. Solutions were incubated at 27° C. and monitored photometrically.

Assay [9] has as its system Klebsiella pneumonia. The assay can be described thus: Antibacterial preliminary screening KP. The assay is classed as cell-based. The note with it: score 0-3.
The test system of assay [10] is Bacillus cereus. The assay can be described thus: Antibacterial preliminary screening BC. The note with it: score 0-3. The assay is classed as cell-based.
The subject of assay [11] is Pseudomonas aeruginosa. The assay can be described thus: Antibacterial preliminary screening PA. The class given is cell-based. The note with it: score 0-3.
Assay [12] deals with Corynebacterium xerosis. In words: Antibacterial assay zone of inhibition Cx. The class given is cell-based.
The test system of assay [13] is Burkholderia thailandensis. The assay is classed as cell-based.
For assay [14], the system named is Mycobacterium smegmatis. The assay can be described thus: Antibacterial assay zone of inhibition Ms. The class given is cell-based.
In assay [15] the test system is Pseudomonas aeruginosa. The assay can be described thus: Antibacterial assay zone of inhibition Pa. The class given is cell-based.
Assay [16] relates to Bacillus cereus. In words: Antibacterial assay zone of inhibition Bc. The assay is classed as cell-based.
The subject of assay [17] is Micrococcus luteus. In words: Antibacterial assay zone of inhibition Ml. The class given is cell-based.
For assay [18], the system named is Klebsiella pneumonia. In words: Antibacterial assay zone of inhibition Kp. The class given is cell-based.
Assay [19] deals with Corynebacterium pseudodiphtheriae. The assay can be described thus: Antibacterial assay zone of inhibition Cp. The class given is cell-based.
For assay [20], the system named is Escherichia coli. In words: Antibacterial assay zone of inhibition Ec. The class given is cell-based.

Chain of AtIspF (Q9CAK8 53-231): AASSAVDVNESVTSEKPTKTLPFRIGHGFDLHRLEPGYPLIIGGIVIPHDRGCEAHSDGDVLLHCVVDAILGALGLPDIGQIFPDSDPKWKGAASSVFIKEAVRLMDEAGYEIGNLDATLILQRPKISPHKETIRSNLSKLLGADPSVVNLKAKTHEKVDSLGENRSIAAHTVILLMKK
Chain of LeIspE (P93841 89-401): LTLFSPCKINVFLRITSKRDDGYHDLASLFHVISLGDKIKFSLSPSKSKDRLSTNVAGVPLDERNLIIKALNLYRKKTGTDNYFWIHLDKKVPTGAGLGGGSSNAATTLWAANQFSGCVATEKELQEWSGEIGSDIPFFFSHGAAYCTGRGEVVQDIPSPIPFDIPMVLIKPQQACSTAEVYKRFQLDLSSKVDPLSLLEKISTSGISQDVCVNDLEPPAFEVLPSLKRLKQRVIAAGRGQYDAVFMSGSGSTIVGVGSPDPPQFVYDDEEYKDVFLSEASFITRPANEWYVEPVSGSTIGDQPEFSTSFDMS
Chain of Lycopersicon esculentum IspE (LeIspE) (P93841 89-401): as above
Chain of AtIspD (P69834 62-302): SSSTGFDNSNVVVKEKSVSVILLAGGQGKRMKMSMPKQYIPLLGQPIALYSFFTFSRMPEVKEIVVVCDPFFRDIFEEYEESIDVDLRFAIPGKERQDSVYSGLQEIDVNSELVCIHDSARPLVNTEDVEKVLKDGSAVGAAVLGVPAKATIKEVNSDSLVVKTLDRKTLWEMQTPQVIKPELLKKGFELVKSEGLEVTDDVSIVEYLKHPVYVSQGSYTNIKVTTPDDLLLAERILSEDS

In turn, `COc1ccc(-c2nnc(-c3cc4ccccc4[nH]3)o2)cc1` [HGN-223, 2-(1H-indol-2-yl)-5-(4-methoxyphenyl)-1,3,4-oxadiazole] returned an ML score with Micrococcus luteus [1] of 0. The half-maximal inhibitory concentration (IC50) on AtIspD stood at 209 ± 29 µM. In the assay on lettuce seeds (0.5 mM), the Bleaching amounted to 0, the Germination was 1 and the “Root Dev.” value turned out to be 0. Further, in the assay with lettuce seeds (1.0 mM), the Bleaching worked out at 0, the Germination was 4 and the “Root Dev.” value was 0. In the assay with Escherichia coli [2], this molecule came in with an EC score of 0. The IC50 at AtIspF was over 1000 µM. The molecule further returned a BT score in assay [3] of 0. Besides, in assay [4], the “MtIspD melting point change” value turned out to be 0.0 °C and the MtIspD melting temp is 48.0 °C. Besides, the CX score in the assay with Corynebacterium xerosis [5] came out at 0. The molecule further returned a CP score in [6] of 0. Also, in [7], the “LeIspE melting point change” value is −0.25 °C and the LeIspE melting temp came to 49.25 °C. In the assay on Mycobacterium smegmatis [8], this molecule registered an MS score of 0. For the same molecule, the 50% inhibitory concentration (IC50) at LeIspE turned out to be 126 ± 12 µM. In the assay on Klebsiella pneumonia [9], this molecule had a KP score of 0. The molecule further returned a BC score in the assay with Bacillus cereus [10] of 0. Moreover, the PA score in the assay with Pseudomonas aeruginosa [11] turned out to be 0.
In the assay with Micrococcus luteus [1], `c1ccc(-c2cccc(-c3nnc(-c4cc5ccccc5[nH]4)o3)c2)cc1` [HGN-287, 2-([1,1′-biphenyl]-3-yl)-5-(1H-indol-2-yl)-1,3,4-oxadiazole] registered an ML score of 0. The IC50 at AtIspD was determined as 501 ± 82 µM. In addition, in the assay on lettuce seeds (0.15 mM), the Bleaching worked out at 0, the Germination is reported as 0 and the “Root Dev.” value is recorded as 0. Further, in the assay on lettuce seeds (0.3 mM), the Bleaching was found to be 0, the Germination came to 0 and the “Root Dev.” value stood at 0. This molecule also registered an EC score in the assay on Escherichia coli [2] of 0. Further, the IC50 at AtIspF was over 1000 µM. In addition, in assay [3], the BT score is 0. In [4], the “MtIspD melting point change” value stood at 0.5 °C and the MtIspD melting temp came to 48.5 °C. This molecule registered a CX score in the assay with Corynebacterium xerosis [5] of 0. In [6], this molecule returned a CP score of 0. For the same molecule, in [7], the “LeIspE melting point change” value is −0.25 °C and the LeIspE melting temp is 49.25 °C. The same molecule showed an MS score in the assay with Mycobacterium smegmatis [8] of 0. Besides, at LeIspE, the IC50 was over 1000 µM. Further, the KP score in the assay with Klebsiella pneumonia [9] is on record as 0. For the same molecule, in the assay on Bacillus cereus [10], the BC score amounted to 0. In the assay on Pseudomonas aeruginosa [11], this molecule had a PA score of 0.
`c1ccc(-c2ccc(-c3nnc(-c4cc5ccccc5[nH]4)o3)cc2)cc1` [HGN-288, 2-([1,1′-biphenyl]-4-yl)-5-(1H-indol-2-yl)-1,3,4-oxadiazole] gave an ML score in the assay on Micrococcus luteus [1] of 0. Also, on AtIspD, the IC50 was determined as 255 ± 35 µM. Moreover, in the assay on lettuce seeds (0.1 mM), the Bleaching was 0, the Germination is reported as 0 and the “Root Dev.” value stood at 0. In addition, in the assay on lettuce seeds (0.2 mM), the Bleaching is on record as 0, the Germination is recorded as 0 and the “Root Dev.” value was determined as 0. Moreover, the EC score in the assay with Escherichia coli [2] was found to be 0. Besides, at AtIspF, the IC50 was over 1000 µM. Moreover, the BT score in [3] was 0. In [4], the “MtIspD melting point change” value was determined as 1.0 °C and the MtIspD melting temp turned out to be 49.0 °C. In the assay on Corynebacterium xerosis [5], this molecule gave a CX score of 0. In addition, the CP score in assay [6] came to 0. In assay [7], the “LeIspE melting point change” value was −1.50 °C and the LeIspE melting temp is 48.00 °C. In addition, the MS score in the assay on Mycobacterium smegmatis [8] is 0. On LeIspE, the IC50 was over 1000 µM. In the assay on Klebsiella pneumonia [9], the KP score was 0. In the assay with Bacillus cereus [10], the BC score worked out at 0. Moreover, the PA score in the assay with Pseudomonas aeruginosa [11] is recorded as 0.
In the case of `Clc1ccc(OCc2nnc(-c3cc4ccccc4[nH]3)o2)c(Cl)c1` [HGN-810], the “Antibacterial Cx zone of inhibition” value in the assay on Corynebacterium xerosis [12] (0.1 mM), in the assay on Corynebacterium xerosis [12] (0.5 mM) and in the assay on Corynebacterium xerosis [12] (1 mM) was 0 millimeters throughout. For the same molecule, the “Antibacterial Bt zone of inhibition” value in [13] (0.1 mM), in [13] (0.5 mM) and in [13] (1 mM) was 0 11.5 17 millimeters in each case. Moreover, the “Antibacterial Ms zone of inhibition” value in the assay with Mycobacterium smegmatis [14] (0.1 mM), with Mycobacterium smegmatis [14] (0.5 mM) and in the assay with Mycobacterium smegmatis [14] (1 mM) was 0 millimeters each time. Further, the “Antibacterial Pa zone of inhibition” value in the assay with Pseudomonas aeruginosa [15] (0.1 mM), with Pseudomonas aeruginosa [15] (0.5 mM) and in the assay on Pseudomonas aeruginosa [15] (1 mM) was 0 millimeters in each case. For the same molecule, the results for the “Antibacterial Bc zone of inhibition” value in the assay on Bacillus cereus [16] (0.1 mM), with Bacillus cereus [16] (0.5 mM) and in the assay on Bacillus cereus [16] (1 mM) were 0 millimeters, 11 millimeters and 16.5 millimeters, respectively. The “Antibacterial Ml zone of inhibition” value in the assay with Micrococcus luteus [17] (0.1 mM), in the assay with Micrococcus luteus [17] (0.5 mM) and in the assay with Micrococcus luteus [17] (1 mM) was 0 millimeters each time. Besides, the “Antibacterial Kp zone of inhibition” value in the assay with Klebsiella pneumonia [18] (0.1 mM), in the assay with Klebsiella pneumonia [18] (0.5 mM) and with Klebsiella pneumonia [18] (1 mM) was 0 millimeters throughout. The “Antibacterial Cp zone of inhibition” value in [19] (0.1 mM), in assay [19] (0.5 mM) and in assay [19] (1 mM) was 0 millimeters throughout. Moreover, the “Antibacterial Ec zone of inhibition” value in the assay on Escherichia coli [20] (0.1 mM), with Escherichia coli [20] (0.5 mM) and in the assay on Escherichia coli [20] (1 mM) was 0 millimeters in each case.
